Measurements as given in publication PMC4496667, “Large-scale Direct Targeting for Drug Repositioning and Discovery” (Scientific Reports, 2015).
Values joined by “and” are separate entries in the source; they are usually repeats but may differ in a detail not shown here. Identical values can stand only once. Like-named read-outs stand apart in the source and are kept apart here.

Columns and labels:
[1] = target: T1, REN (Homo sapiens, UniProt P00797); experiment: Renin Inhibitor Screening Assay Kit (REN); type: biochemical; settings: target REN; mean ± SD of three independent repeats, Bliss method, eight data points
T1 construct: purchased Cayman Chemical
T1 sequence (P00797 67-406): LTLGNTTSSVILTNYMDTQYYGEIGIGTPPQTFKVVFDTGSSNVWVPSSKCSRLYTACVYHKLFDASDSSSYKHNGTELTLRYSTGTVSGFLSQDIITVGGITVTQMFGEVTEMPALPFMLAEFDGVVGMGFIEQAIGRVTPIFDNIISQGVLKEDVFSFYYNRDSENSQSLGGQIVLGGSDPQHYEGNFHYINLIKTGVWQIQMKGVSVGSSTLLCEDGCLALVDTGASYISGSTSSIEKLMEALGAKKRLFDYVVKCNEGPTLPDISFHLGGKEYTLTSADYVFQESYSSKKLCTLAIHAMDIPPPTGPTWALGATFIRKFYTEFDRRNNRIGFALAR
Procedure: (§1) To validate the practicability of WES model, we randomly selected Enpp2, Faah, PTGS2, PPARG, and REN, the five inflammation-related targets, and predicted their direct ligand-target interactions. The 24 top-scoring (hybrid-WES) and commercially available drug-target interactions (Table 3) were tested by the ligand-binding assays.
(§2) Enpp2 (Autotaxin Inhibitor Screening Assay Kit), Faah (FAAH Inhibitor Screening Assay Kit), PTGS2 (COX Inhibitor Screening Assay Kit), PPARG (PPARγ Ligand Screening Assay Kit), and REN (Renin Inhibitor Screening Assay Kit) were purchased from Cayman Chemical, Ann Arbor, MI, USA. […] The activity of targets was detected according to manufacturer’s instructions. IC50 values were determined using the Bliss method according to the eight data points per drug. The same drug-target interaction was repeated independently three times to obtain a mean IC50 value and its standard deviation.

[2] = target: T2, PTGS2 (Homo sapiens, UniProt P35354); experiment: COX Inhibitor Screening Assay Kit (PTGS2); type: biochemical; settings: target PTGS2; mean ± SD of three independent repeats, Bliss method, eight data points
T2 construct: purchased Cayman Chemical
T2 sequence (P35354 18-604): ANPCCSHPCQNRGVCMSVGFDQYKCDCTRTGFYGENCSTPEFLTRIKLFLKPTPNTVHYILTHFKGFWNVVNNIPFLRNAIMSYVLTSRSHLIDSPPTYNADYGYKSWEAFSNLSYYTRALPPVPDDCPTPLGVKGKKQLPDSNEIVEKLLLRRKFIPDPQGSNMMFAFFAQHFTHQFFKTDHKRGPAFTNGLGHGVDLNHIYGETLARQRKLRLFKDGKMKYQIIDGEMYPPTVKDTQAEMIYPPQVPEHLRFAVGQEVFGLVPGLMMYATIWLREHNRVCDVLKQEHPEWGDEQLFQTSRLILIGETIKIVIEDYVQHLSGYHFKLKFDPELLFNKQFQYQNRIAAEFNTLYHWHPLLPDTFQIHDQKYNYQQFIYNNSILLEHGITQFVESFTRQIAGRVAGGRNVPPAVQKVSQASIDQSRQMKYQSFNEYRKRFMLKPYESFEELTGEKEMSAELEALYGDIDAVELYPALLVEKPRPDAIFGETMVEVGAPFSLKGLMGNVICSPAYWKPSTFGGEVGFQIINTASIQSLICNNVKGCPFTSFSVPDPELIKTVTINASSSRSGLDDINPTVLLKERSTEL
Procedure: as §1, §2

[3] = target: T3, Faah (Homo sapiens, UniProt O00519); experiment: FAAH Inhibitor Screening Assay Kit (Faah); type: biochemical; settings: target Faah; mean ± SD of three independent repeats, Bliss method, eight data points
T3 construct: purchased Cayman Chemical
T3 sequence (O00519 1-579): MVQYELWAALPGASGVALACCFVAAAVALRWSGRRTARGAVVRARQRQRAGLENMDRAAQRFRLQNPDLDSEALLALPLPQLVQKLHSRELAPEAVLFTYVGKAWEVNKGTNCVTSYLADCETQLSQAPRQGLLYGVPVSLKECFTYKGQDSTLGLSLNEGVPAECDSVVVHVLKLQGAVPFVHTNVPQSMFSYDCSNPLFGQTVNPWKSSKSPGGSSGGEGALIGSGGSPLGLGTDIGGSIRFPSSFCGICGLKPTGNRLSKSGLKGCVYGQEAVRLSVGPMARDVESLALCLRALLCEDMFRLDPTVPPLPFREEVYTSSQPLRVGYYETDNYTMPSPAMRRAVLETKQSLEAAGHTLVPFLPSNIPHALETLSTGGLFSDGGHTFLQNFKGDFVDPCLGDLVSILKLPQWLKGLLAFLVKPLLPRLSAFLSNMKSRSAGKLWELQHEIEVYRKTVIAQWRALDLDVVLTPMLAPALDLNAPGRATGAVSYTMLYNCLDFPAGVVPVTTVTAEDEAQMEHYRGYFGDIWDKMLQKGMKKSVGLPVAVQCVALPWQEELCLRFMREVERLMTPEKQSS
Procedure: as §1, §2

[4] = target: T4, Enpp2 (Homo sapiens, UniProt Q13822); experiment: Autotaxin Inhibitor Screening Assay Kit (Enpp2); type: biochemical
T4 construct: purchased Cayman Chemical
Procedure: as §1, §2

[5] = target: T5, PPARG (Homo sapiens, UniProt P37231); experiment: PPARγ Ligand Screening Assay Kit (PPARG); type: binding; settings: target PPARG; mean ± SD of three independent repeats, Bliss method, eight data points
T5 sequence (P37231 1-505): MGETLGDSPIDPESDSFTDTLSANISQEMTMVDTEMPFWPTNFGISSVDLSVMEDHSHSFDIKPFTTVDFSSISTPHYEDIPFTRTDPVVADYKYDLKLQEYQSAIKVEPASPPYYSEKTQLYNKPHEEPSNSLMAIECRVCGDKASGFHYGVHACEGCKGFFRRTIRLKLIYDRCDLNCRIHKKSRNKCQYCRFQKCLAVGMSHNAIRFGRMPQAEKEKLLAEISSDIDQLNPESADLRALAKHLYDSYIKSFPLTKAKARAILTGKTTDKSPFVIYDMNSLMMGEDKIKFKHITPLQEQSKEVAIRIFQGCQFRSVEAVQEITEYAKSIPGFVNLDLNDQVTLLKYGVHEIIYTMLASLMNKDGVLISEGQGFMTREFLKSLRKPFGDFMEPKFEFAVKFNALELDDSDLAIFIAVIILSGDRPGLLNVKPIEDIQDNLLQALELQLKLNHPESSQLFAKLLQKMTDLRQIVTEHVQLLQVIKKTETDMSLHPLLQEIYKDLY
Procedure: as §1, §2

[6] = target Enpp2, mean ± SD of three independent repeats, Bliss method, eight data points, read-out: IC50 (μM):mean ± SD

## CC(C)C[C@H](NC(=O)[C@H](CCc1ccccc1)NC(=O)CN1CCOCC1)C(=O)N[C@@H](Cc1ccccc1)C(=O)N[C@@H](CC(C)C)C(=O)[C@@]1(C)CO1 [Carfilzomib]
[1]
  IC50: 22 ± 6.4 µM

## CC[C@H](C)C(=O)O[C@H]1C[C@H](O)C=C2C=C[C@H](C)[C@H](CC[C@@H](O)C[C@@H](O)CC(=O)O)[C@H]21 [Pravastatin]
[2]
  IC50: 199 ± 12.3 µM

## CC/C=C\C/C=C\C/C=C\CCCCCCCC(=O)O [Alpha-linolenic acid]
[3]
  IC50: 43.9 µM and 53.9 µM

## CC(C)(C)NC(=O)[C@@H]1CN(Cc2cccnc2)CCN1C[C@@H](O)C[C@@H](Cc1ccccc1)C(=O)N[C@H]1c2ccccc2C[C@H]1O [Indinavir]
[1]
  IC50: 44.3 ± 12.1 µM

## Cetrorelix (AFASYRLRPA)
[1]
  IC50: 156 ± 3.7 µM

## CCN(CC)CC(=O)OCC(=O)[C@@]1(O)CC[C@H]2[C@@H]3CCC4=CC(=O)CC[C@]4(C)[C@H]3[C@@H](O)C[C@@]21C [Hydrocortamate]
[4]; [6]
  IC50: 218 ± 6.4 µM

## C/C(=C\C(=O)OCCCCCCCCC(=O)O)C[C@@H]1OC[C@H](C[C@@H]2O[C@H]2[C@@H](C)[C@H](C)O)[C@@H](O)[C@H]1O [Mupirocin]
[2]
  IC50: 123 ± 7.4 µM

## CCCCCCCCc1ccc(CCC(N)(CO)CO)cc1 [Fingolimod]
[4]; [6]
  IC50: 115 ± 5.8 µM

## CN[C@H](CC(C)C)C(=O)N[C@H]1C(=O)N[C@@H](CC(N)=O)C(=O)N[C@H]2C(=O)N[C@H]3C(=O)N[C@H](C(=O)N[C@H](C(=O)O)c4cc(O)cc(O)c4-c4cc3ccc4O)[C@H](O)c3ccc(c(Cl)c3)Oc3cc2cc(c3O[C@@H]2O[C@H](CO)[C@@H](O)[C@H](O)[C@H]2O[C@H]2C[C@](C)(N)[C@H](O)[C@H](C)O2)Oc2ccc(cc2Cl)[C@H]1O [Vancomycin]
[4]
  IC50: 68.5 ± 7 µM

## Cc1c(C(=O)NN2CCCCC2)nn(-c2ccc(Cl)cc2Cl)c1-c1ccc(Cl)cc1 [Rimonabant]
[2]
  IC50: 138 ± 3.5 µM

## Felypressin (CFFQNCPKG)
[1]
  IC50: 4.5 ± 7.1 µM

## CC(=O)OCC(=O)NCCCOc1cccc(CN2CCCCC2)c1 [Roxatidine acetate]
[3]
  IC50: 34.5 ± 1.5 µM

## COC(=O)CCc1ccc(OCC(O)CNC(C)C)cc1 (stereo not drawn) [Esmolol]
[5]
  IC50: 40.8 ± 6.5 µM

## CCCCC[C@H](O)CC[C@@H]1[C@H]2Cc3cccc(OCC(=O)O)c3C[C@H]2C[C@H]1O [Treprostinil]
[5]
  IC50: 69 ± 17.5 µM
  IC50 (μM):mean ± SD: micromolar concentration range

## Cc1cccc(C)c1OCC(=O)N[C@@H](Cc1ccccc1)[C@@H](O)C[C@H](Cc1ccccc1)NC(=O)[C@H](C(C)C)N1CCCNC1=O [Lopinavir]
[1]
  IC50: 49.3 ± 10.3 µM

## Pasireotide
[4]; [6]
  IC50: 73.3 ± 9.7 µM

## CC(C)(C)NC(=O)[C@@H]1C[C@@H]2CCCC[C@@H]2CN1C[C@@H](O)[C@H](Cc1ccccc1)NC(=O)[C@H](CC(N)=O)NC(=O)c1ccc2ccccc2n1 [Saquinavir]
[1]
  IC50: 69.1 ± 4.2 µM
